Laboratory results: patent publication EP3733658B1, “PRENYLATED BENZOPYRANES AS PPAR AGONISTS” (Universitat de València, priority 2017, dated 2019)

Legend:
[1] = tested on: human umbilical vein endothelial cells (HUVEC); experiment: MTT colorimetric cell viability assay, HUVEC; type: cell-based; conditions: 30 µM, 24 h
Method: To evaluate potential adverse effects (cytotoxicity) of the compounds of the invention, the compounds 1 and 2 for use according to the present invention, compound 8 of the invention, and the reference compounds were evaluated at concentrations of 30 and 100 µM in human neutrophils (Fig. 1A) and primary cultures of human umbilical vein endothelial cells (HUVEC) (Fig. 1B) using two different techniques: MTT colorimetry assay and flow cytometry analysis for cellular apoptosis and survival. In addition, the synthetic compound 9 of the invention was evaluated at 10, 30 and 100 µM (Fig. 2).
MTT assay. The viability of neutrophils and HUVEC was determined by the MTT colorimetric assay MTT (3(4,5-dimethylthiazol-2-yl)-2,5-diphenyltetrazoyl bromide).
Human umbilical vein endothelial cells (HUVEC) were isolated with the collagenase treatment and maintained in a human specific endothelial base medium (EBM-2) supplemented with endothelial growth medium (EGM-2) and 10% FCS. Cells of the first passage were cultured until their confluence in 24-well plates. Before starting each experiment, the cells were incubated for 24 h in a medium containing 1% FBS.
100 µL of neutrophils and HUVEC (2 × 10^5 cells/mL) suspension in supplemented RPMI medium were added to each well of a 96-well plate. The cells were incubated in absence and/or presence of the compounds at 37°C for24h. An MTT solution was prepared (2 mg/mL in PBS). 100 µL of the MTT solution were added to each well and incubated at 37°C for an additional 3 h. The supernatants were discarded and 200 µL of DMSO were added to each well to dissolve the precipitated formazan. The optical densities at two wavelengths (560 and 630 nm) were measured in a spectrophotometer (Infinite M200, Tecan, Mannedorf, Switzerland).

[2] = Treatment of ob/ob mice: body weight gain and feed efficiency; conditions: oral, 4 days
Source text: Protocols conforming to European Union guidelines for the care and protection of animals were approved by the Ethics Committee of the University of Valencia. All efforts were made to minimize the number of animals used and their suffering. ob/ob mice have a leptin deficiency, and are associated with hyperphagia and obesity, as well as hyperglycemia and hyperinsulinemia. This study used male ob/ob mice (C57BU6J) (Charles River laboratories, Chatillon-sur-Chalaronne, France).
The mice were housed in individual cages in a room with controlled temperature, humidity and light. […] The mice were allowed to acclimate for ten days prior to the study.
The control ob/ob mice were just administered with vehicle (physiological saline solution with HEC 1%). […] The compounds were prepared freshly each day in a 1% suspension of HEC for oral administration. Randomization was performed based on the glycaemia values on day 0. For the duration of the experiment the amount of food ingested and the body weight were determined daily for each mouse. Every day between 9:00 and 11:00 a.m. (prior to treatment) blood glucose levels were measured using (Contour next USB Blood glucose meter, BAYER, Basel, Switzerland). On the fifth day of the experiment the mice were anesthesized with isofluorane and blood was extracted by cardiac puncture. The blood was collected in tubes containing EDTA or heparin. Plasma samples were obtained by centrifugation and stored at -80°C. After obtaining the samples, the animals were sacrificed by cervical dislocation and subsequently different organs such as white adipose tissue (WAT) and liver were extracted for additional studies. The organs were weighed and frozen for subsequent RNA analysis and to conduct histological studies
The weight gain at the end of treatment was calculated (d5-d0) (Figure 14A).

[3] = tested on: white adipose tissue (WAT); experiment: Treatment of ob/ob mice: white adipose tissue weight, histology and F4/80 immunohistochemistry; type: in vivo; conditions: oral, 4 days
Source text: (§1) […]. […] […].
The samples of epididymal white adipose tissue (WAT) and liver were fixed in 4% paraformaldehyde, embedded in paraffin, sectioned with a microtome (Leica RM2245, Leica Biosystems, Wetzlar, Germany) and mounted in microscope slides Superfrost® plus (Thermo Fisher Scientific, Waltham, MA). Cross sections of WAT and liver were obtained. At least 10 slides were examined containing ≈ 4 cross sections of tissue (5 µm thickness) of each animal. Hematoxilin and eosin (H&E) staining was performed of the WAT and liver. Inflammatory infiltration in WAT was measured as previously described (Toyoda et al., 2008). After inactivation of the peroxidase (3% H2O2) and blocking with goat serum (Abcam, Cambridge, UK), cross sections of WAT were incubated overnight (4°C) with the following primary (mAb) monoclonal antibody: a rabbit anti-mouse F4/80 mAb (dilution 1:100, Abcam, Cambridge, UK). A specific marking was detected with a secondary goat HRP-conjugated anti-rabbit antibody (dilution 1:500, Dako, Copenhagen, Denmark). To confirm the specificity of the antibodies, control antibodies with the same isotope (Abcam, Cambridge, UK) or secondary antibody were used only as negative controls. […] Five fields of each WAT tissue section were photographed (Axio Observer A1, Carl Zeiss microscope, Thornwood, NY) digitalized and analyzed (Imaged software 1.48V, Bethesda, […]). Quantification was performed double blind with codes.

MCP-1 = experiment: Treatment of ob/ob mice: MCP-1 mRNA in WAT by real-time PCR; type: in vivo; conditions: oral, 30 mg/Kg/d, 4 days
Method: 6 animals were used in each group in independent experiments (n=6).
The total RNA was extracted from mouse WAT by homogenization. Reverse transcription was performed with 1000 ng of total RNA using the inverse transcription kit TaqMan (Applied Biosystems, Thermo Fisher Scientific, Waltham, MA) and converted to cDNA by standard methods. The cDNA was amplified with specific feeders for the mouse monocytic chemoattractant protein 1 (MCP-1 or CCL2, Mm00441242_m1) in a Real Time PCR 7900HT apparatus (Applied Biosystems, Thermo Fisher Scientific, Waltham, MA) using Universal Master Mix (Applied Biosystems, Thermo Fisher Scientific, Waltham, MA). All feeders were designed by Applied Biosystems. The relative quantification of the various transcriptions was determined by the 2^-ΔΔCt method using GAPDH (Applied Biosystems, Thermo Fisher Scientific, Waltham, MA) as endogenous and normalized control for the control group.

[4] = Treatment of ob/ob mice: plasma metabolites (cholesterol, HDL-c, triglycerides, free fatty acids, ALT, AST); type: in vivo; set-up: blood levels of free fatty acids: unit not given here; conditions: oral, 4 days; for triglyceride levels in plasma: control 137 mg/dL
Method: as §1
Free fatty acids (FFA) in plasma, and the enzymes aspartate aminotransferase (AST) and alanine aminotransferase (ALT) were determined with a colorimetric assay kit (Sigma-Aldrich, Madrid, Spain). In addition the plasma lipid levels for total cholesterol and triglycerides (TG) were measured by enzymatic methods (WAKO, Cape Charles, VA). The concentration of HDLcholesterol (HDL-c) was also determined with the same method used to measure total cholesterol, after precipitating the apolipoprotein-B (apoB) with dextran sulphate/MgCl2 (Sigma-Aldrich, Madrid, Spain) as previously described (Zieske et al., 2005).

In the case of `CCOC(=O)CCC(C)=CCCC1(C)CCc2cc(OCc3ccc(F)cc3)ccc2O1` (stereo not shown) [Compound 9], the “cytotoxicity (MTT), with respect to the vehicle” value [1] was 12%, the “Weight gain (d5-d0)” value ([2]; 30 mg/Kg/d) was 1.88 ± 0.52 g and the “Feed efficiency (ratio of weight gain and food consumed)” value [2] was “no observable differences”. The “weight gain compared to the control group” value ([2]; doses of 10 and 30 mg/Kg/d) was “did not cause significant differences”, the “number of macrophages (F4/80) in WAT” value ([3]; 30 mg/Kg/d) was “significantly reduce” and the “weight of epididymal white adipose tissue (WAT) compared to the control group” value [3] was “did not significantly increase”. The “mean area of the adipocytes in WAT” value ([3]; compound 9 10 and 30 mg/Kg/d (dose-dependent), rosiglitazone 10 mg/Kg/d) was “significant decrease”, the “expression of MCP-1 in WAT” value (MCP-1) was “significantly reduced” and the “triglyceride levels in plasma” value ([4]; 10 mg/Kg/d) was 122 mg/dL. The “triglyceride levels in plasma” value ([4]; 30 mg/Kg/d) was 101 mg/dL, the “blood levels of free fatty acids” value ([4]; 30 mg/Kg/d, control 0.67) was 0.25 and the “triglyceride levels in plasma (in words)” value [4] was “decrease of triglyceride levels in plasma, although not in a significant manner”. For the same compound, the “decrease of AST level compared to the ob/ob control group” value ([4]; plasma, 30 mg/Kg/d) was 28%, the “increase of total cholesterol levels with respect to the control group” value ([4]; plasma, 30 mg/Kg/d) was 50% and the ALT level ([4]; plasma) was “reduced”. For the same compound, the “HDL-c with respect to the control group” value ([4]; plasma, compound 9 10 and 30 mg/Kg/d, WY-14643 30 mg/Kg/d) was “significantly increased”.
